Results reported in patent US7282599B2, “Dithiocarbamate antiviral agents and methods of using same” (Avir Green Hills Biotechnology Research Devlopment Trade AG, priority 2001, dated 2007).
pEC50: −log10 of the molar value.

Columns and labels:
[1] = test system: HRV2; assay: Cell Titer 96 cell proliferation assay, viability of HRV2-infected HeLa cells; type: cell-based, human rhinovirus; settings: for protective effect during viral proliferation: determined as described in Example 3, HRV2-infected HeLa cells; for viability of infected cells: HeLa cells, HRV2 20 TCID50/cell, 24 hours after infection, even slight concentrations
Source text: A cell proliferation assay was done to test the effect of PDTC or DDTC on the viability of the cells during a viral infection.

[2] = test system: respiratory RNA viruses; assay: Action of antioxidants against respiratory RNA viruses (summary statement); type: cell-based
[3] = test system: mengovirus virions; settings: Calvert, Interferon Research 1990; cited from earlier work
[4] = test system: HeLa cells; assay: Cell proliferation assay on uninfected HeLa cells (toxicity control); settings: for toxicity of the concentration used to inhibit the viral infections: HeLa cells; for effects on uninfected cells (viability): compound alone, uninfected HeLa cells
[5] = test system: human immunodeficiency virus; settings: asymptomatic and minimally symptomatic HIV patients, HIV87 Study Group 1993; cited from earlier work
[6] = test system: HRV2; assay: Crystal violet staining of cell lawn of HRV2-infected HeLa cells; type: cell-based, human rhinovirus; settings: HRV2 100 TCID50 per cell, compound added 1 hour after infection, stained after 24 hours
[7] = test system: influenza virus; settings: Knobil et al., Am. J. Physiol. 1998; cited from earlier work
[8] = test system: HRV2; assay: Time of addition, viral titers in supernatants of HRV2-infected cells; type: cell-based, human rhinovirus
Procedure: Similar results were obtained if the viral titers (vt) were determined in the supernatants of infected and PDTC-treated cells (see FIG. 4B). Addition of PDTC up to four hours after infection reduced the titer of the HRV2 produced by 10^3.

[9] = test system: HRV serotypes 1A, 2, 14 and 16; assay: Virus progeny titer (TCID50 test) in supernatants of HRV-infected HeLa cells; type: cell-based, human rhinovirus; settings: 20 TCID50 per cell, PDTC 125 μm
Procedure: PDTC was added after infection of cells with various HRV serotypes to test the effectiveness during infections by HRV. HeLa cells were infected with HRV serotypes 1A, 2, 14 and 16 with 20 TCID50 (tissue culture infectious dose 50) per cell. PDTC was added at the same time to a concentration of 125 μm in the medium. Excess virus was removed 4 hours after infection, while PDTC was added to the fresh medium. 24 hours (FIG. 1, top) and 48 hours (FIG. 1, bottom) after the infection (p. I.), the supernatants were collected and the amount of virus progeny was determined by TCID50 tests. Treatment of cells with PDTC reduced the virus titer (vt) by 10^3 after 24 hours (FIG. 1, top).

[10] = test system: rhinoviral proteins VP1, VP2 and VP3; assay: Western blot of HRV2 capsid proteins in infected HeLa cells; type: cell-based, human rhinovirus; settings: HRV2 100 TCID50 per cell
Source text: To determine the effect of PDTC on the expression of viral proteins, capsid proteins of HRV2 were detected by Western blot analysis in protein extracts from HRV2-infected HeLa cells (100 TCID50 per cell) (see FIG. 6). The Western blot analysis was done as described above in Example 5, with use of a polyclonal rabbit antiserum against HRV2. Significant amounts of the rhinoviral proteins VP1, VP2 and VP3 were detected in untreated cells six hours after infection.

[11] = test system: equine rhinitis A virus (ERAV); type: cell-based; settings: vero cells, 10 TCID50 ERAV per cell, PDTC 1 mM-50 μM, 24 hours after infection
Procedure: The reduction of ERAV viral propagation by addition of PDTC was investigated as follows: vero cells were infected with 10 TCID50 ERAV per cell. At the same time, PDTC was added at different concentrations (1 mM-50 μM). The inoculum was removed 4 hours after infection, and fresh medium with PDTC was added. The supernatants were removed 24 hours after the infection, and the viral titers were determined in a standard plate assay.

[12] = test system: FMV virus O-Manisa; assay: microbe, parasite or virus in culture; type: cell-based, foot and mouth disease virus
[13] = test system: FMV virus O-Manisa; type: cell-based, foot and mouth disease virus; settings: IB-RS-2 cells, 0.001 TCID50 per cell, PDTC up to 200 μM, 24 hours after infection
[14] = test system: eIF4GI; assay: Western blot of eIF4GI splitting by viral 2A protease in HRV2-infected HeLa cells; type: cell-based, human rhinovirus; settings: HRV2 100 TCID50 per cell
Procedure: Various proteolytic activities were determined to examine the course of a rhinoviral infection in the presence and absence of PDTC. Enzymatic splitting of the cellular translation initiation factors 4GI (eIF4GI) and 4GII by viral 2A protease, ending host cell protein synthesis, is one characteristic proteolytic activity that occurs in the course of infection with rhinoviruses and enteroviruses. Depending on the HRV serotype, eIF4G proteins are split in an early stage of infection. Another splitting activity during a rhinoviral infection, only recently described, is splitting of the intermediary filament protein cytokeratin 8. This splitting also depends on the 2A protease, but occurs at a later stage of the infection. In order to investigate the effect of a PDTC treatment on the course of a virus infection, a Western blot analysis was done to analyze these 2A protease substrates.
Medium was removed at the indicated times for the Western blot analysis. The cells were lysed by adding 100 μl of protein buffer (8% sodium dodecyl sulfate, 20% β-mercapto-ethanol, 20% glycerol, 0.04% bromphenol blue). 20 μl protein extract was separated by SDS-PAGE on each track, and blotted onto PVDF membranes. […] The molecular weights were determined by using a prestained SDS-7B marker (Sigma).
Splitting of eIF4GI can be detected 4 hours after infection in HeLa cells infected with HRV2 (100 TCID50 per cell). […]

[15] = test system: BHK-21 cells; settings: PDTC 0.975 to 1000 μM, 4 days at 37° C.
[16] = test system: HRC serotypes 1A, 2, 14 and 16; assay: Time of addition, proliferation assay of HRV-infected cells; type: cell-based, human rhinovirus; settings: PDTC 125 μM, 20 TCID50 per cell
Procedure: To determine the stage of the viral life cycle attacked by PDTC, PDTC was added at various times following virus infection with 20 TCID50 per cell, and proliferation assays were done. […] This effect is also not specific for a single serotype, as HRC serotypes 1A, 2, 14 and 16 were used. Only PDTC treatment (125 μM) of the cells more than 8 hours after infection reduced the protective effect.

[17] = test system: influenza virus; assay: Mice inoculated intranasally with lethal dose of influenza virus, intranasal treatment; type: in vivo, C57/BL6 mice; settings: 25 μl 600 mM PDTC intranasally
Procedure: Ten C57/BL6 mice were inoculated intranasally with a lethal dose (50 μl 10^7 pfU). One hour later, they were treated intranasally with 25 μl 600 mM PDTC or with 25 μl PBS. The mice were examined and treated every 12 hours for the first 48 hours and then every 24 hours. The weights of the mice were determined and reported in % of the initial weight (% w) (FIG. 11A). […] All the mice treated with PBS (diamonds) died within 12 days after the infection (% s=% surviving).

[18] = test system: FSME virus (Neudörfel); assay: FSME virus proliferation in suspended cells; type: cell-based; settings: same concentrations, 0.975 to 1000 μM
Procedure: Similarly, we investigated whether PDTC can affect virus proliferation in suspended cells. The same concentrations as above were tested.

[19] = test system: A/Vienna/47/96; assay: microbe, parasite or virus in culture; type: cell-based, influenza A virus; settings: 4 days
[20] = test system: A/PR8/34; assay: microbe, parasite or virus in culture; type: cell-based, influenza A virus; settings: 4 days
[21] = test system: EMC virus; assay: Mice infected intraperitoneally with EMC virus, intraperitoneal treatment; type: in vivo, C57B16 mice; settings: 50 μl of 50 mM PDTC per day i.p.
Procedure: C57B16 mice were infected intraperitoneally with 10 TCID50 of EMC virus. Then, the control group was treated intraperitoneally once daily with PBS. Two other groups were treated with 50 μl of 50 mM PDTC per day. Treatment of one group (PDTC) was started simultaneously with the infection, while treatment of the other group (PDTC 24 hpi) was started only 24 hours after the infection.

[22] = test system: influenza A/PR8/34 and influenza A/Vienna/47/96; assay: microbe, parasite or virus in culture; type: cell-based, influenza A virus
[23] = test system: HRV2, HRV14, HRV1A and HRV16; assay: HRV-induced cytopathic effects (morphology) in HeLa cells; type: cell-based, human rhinovirus
Procedure: Morphological changes in the cells, called “cytopathic effects” (CPE) occur in the late stages of a rhinoviral infection. These HRV induced CPE are characterized as cell rounding, shrinkage, deformation of the nucleus and chromatin condensation. When HeLa cells are infected with HRV2, HRV14, HRV1A and HRV16 at 100 TCID50 per cell, a distinct cytopathic effect is visible after 8 hours post-infection.

OCCS [β-mercaptoethanol]
protective effect during viral proliferation [1]: none of these antioxidants had any protective effect | action against respiratory RNA viruses [2]: no action at all

CCN(CC)C(=S)S [DDTC, N, N-diethyldithiocarbamate]
action on mengovirus virions [3]: inactivates mengovirus virions | toxicity of the concentration used to inhibit the viral infections [4]: exhibits no toxicity | effects on uninfected cells (viability) [4]: only minor effects on uninfected cells | viability of infected cells [1]: significantly increased

CCN(CC)C(=S)S [dithiocarb]
cure or improvement of AIDS patients [5]: does not cause cure or improvement of the patients

CC(=O)N[C@@H](CS)C(=O)O [NAC, N-acetylcysteine, reference compound]
action against respiratory RNA viruses [2]: no action at all | prevention of destruction of the cell lawn by HRV2 infection [6]: not | inhibition of influenza virus infection or replication [7]: neither NAC nor PDTC inhibits influenza virus infection or replication

Cc1c(C)c2c(c(C)c1O)CCC(C)(C(=O)O)O2 (centres unmarked) [Trolox]
protective effect during viral proliferation [1]: none of these antioxidants had any protective effect

S=C(S)N1CCCC1 [PDTC, pyrrolidine dithiocarbamate]
viral titers produced ([8]; PDTC treatment started only 6 hours after infection): significantly reduced | reduction of the titer of the HRV2 produced ([8]; addition of PDTC up to four hours after infection): 10^3 | reduction of the virus titer (vt) ([9]; supernatants 24 hours after infection): 10^3 | virus titer in supernatants ([9]; supernatants 48 hours after infection): significant reduction of the virus titer | expression of VP1, VP2 and VP3 ([10]; about 24 hours after infection): Weak expression | expression of capsid proteins VP1, VP2 and VP3 ([10]; within the first 8 hours after infection): prevented expression of those capsid proteins | virus titer (vt) in the supernatant in comparison to untreated cells [11]: decreases | protection against the cytopathic effect of the virus ([12]; 600 μM PDTC, IB-RS-2 cells, 0.1 TCID50 per cell, 24 hours): 100% | pEC50 ([12]; Foot-and-mouth disease virus, 24 h, read-out: concentration range for 50% reduction of infected wells): 3.82 to 4.12 | reduction of virus titer compared with the control sample [13]: more than 2 log steps | splitting of eIF4GI ([14]; 4 and 8 hours after infection): No splitting of eIF4GI can be detected | splitting of eIF4GI ([14]; about 24 hours after infection): slight eIF4GI splitting can be detected | toxic effects on cell monolayer (microscopic examination) [15]: no indications of toxic effects | time of PDTC treatment after infection at which the protective effect was reduced [16]: more than 8 hours | time of addition offering the best protection against virus induced loss of proliferation [16]: within the first six hours after infection | weight of infected mice ([17]; 7 days after the infection): gained weight | survival of infected mice ([17]; from one hour after lethal inoculation): all the mice treated with PDTC (squares) survived the virus infection | reduction of virus proliferation in suspended cells [18]: no indication of reduction of virus proliferation | toxicity of the concentration used to inhibit the viral infections [4]: exhibits no toxicity | effects on uninfected cells (viability) [4]: only minor effects on uninfected cells | inhibition at 1200 µM ([19]; Influenza A virus, 96 h, PDTC 1200 μM, read-out: inhibition (TCID50 assay)): > 99.9% | reduction of TCID50 ([19]; PDTC 300 μM): 82.2% | viability of infected cells [1]: significantly increased | prevention of destruction of the cell lawn by HRV2 infection [6]: can prevent that effect | inhibition at 1200 µM ([20]; Influenza A virus, PR8, 96 h, PDTC 1200 μM, read-out: inhibition (TCID50 assay)): > 99.9% | reduction of TCID50 ([20]; PDTC 300 μM): 76.4% | inhibition of influenza virus infection or replication [7]: neither NAC nor PDTC inhibits influenza virus infection or replication | changes of the mouse weights after the beginning of the infection ([21]; started with infection or 24 hours after): no difference in treated and untreated mice | average time to death for the infected mice ([21]; every group: PBS, PDTC, PDTC 24 hpi): 5.5 days | pEC50 ([22]; Influenza A virus, PR8, Vero, 96 h, read-out: PDTC concentration for 50% reduction of positive wells): 4.00 to 4.30 | PDTC concentration for complete inhibition of cytopathic effects ([22]; all viruses, vero cells): 600 µM | morphology of infected cells ([23]; 125 μM PDTC, 8 hours after the infection): cannot be distinguished from the morphology of non-infected (n. i.) cells | appearance of cytopathic effects ([23]; HeLa cells, 100 TCID50 per cell, PDTC added during the infection): prevents the appearance of these cytopathic effects

O=C1O[C@H]([C@@H](O)CO)C(O)=C1O [Vitamin C]
protective effect during viral proliferation [1]: none of these antioxidants had any protective effect | action against respiratory RNA viruses [2]: no action at all

Vitamin E
action against respiratory RNA viruses [2]: no action at all
